The values that follow are results of earlier work, collected in patent US12109298B2, “Improving the fastness to washing of pigment-containing dyes by using an oxidative pretreatment agent” (Henkel AG & Co. KGaA, priority 2020, dated 2024).

For series [1] the following is noted: 5% solution in water.
The conditions of series [2]: 25° C.

Like-named read-outs stand apart in the source and are kept apart here.

Turning to `O=P([O-])(O)O.[K+]` [Potassium dihydrogen phosphate], the pH value in series [1] was 4.4.
Turning to `O=C([O-])C1=NN(c2ccc(S(=O)(=O)[O-])cc2)C(=O)C1N=Nc1ccc(S(=O)(=O)[O-])cc1.[Na+].[Na+].[Na+]` (stereo not drawn) [Acid Yellow 23, trisodium salt of 4,5-dihydro-5-oxo-1-(4-sulfophenyl)-4-((4-sulfophenyl)azo)-1H-pyrazole-3-carboxylic acid], the solubility in water entry in series [2] (in words) is “readily soluble in water”.
As for `O=C([O-])c1c(Cl)c(Cl)c(Cl)c(Cl)c1-c1c2c(Br)cc(=O)c(Br)c-2oc2c(Br)c(O)cc(Br)c12.O=C([O-])c1c(Cl)c(Cl)c(Cl)c(Cl)c1-c1c2c(Br)cc(=O)c(Br)c-2oc2c(Br)c(O)cc(Br)c12.[Na+].[Na+]` [Acid Red 92, disodium salt of 3,4,5,6-tetrachloro-2-(1,4,5,8-tetrabromo-6-hydroxy-3-oxoxanthen-9-yl)benzoic acid], the solubility in water result in series [2] was “greater than 10 g/L”.
For `Nc1cc(S(=O)(=O)[O-])cc2cc(S(=O)(=O)[O-])c(N=Nc3ccccc3)c(O)c12.[Na+].[Na+]` [Acid Red 33, diantrium salt of 5-amino-4-hydroxy-3-(phenylazo)-naphthalene-2,7-disulphonate], the solubility in water in series [2] was 2.5 mg/mL.
With `CCN(Cc1cccc(S(=O)(=O)[O-])c1)c1ccc(C(=C2C=CC(=[N+](CC)Cc3cccc(S(=O)(=O)[O-])c3)C=C2)c2ccccc2S(=O)(=O)[O-])cc1.[Na+].[Na+]` [Acid Blue 9], the solubility in water entry in series [2] is reported as “more than 20 wt. %”.
For the compound `O=S(=O)([O-])c1ccc(N=Nc2c(O)ccc3ccccc23)cc1.[Na+]` [Acid Orange 7, sodium salt of 4-[(2-hydroxy-1-naphthyl)azo]benzene sulfonate], the solubility in water result in series [2] was “more than 7 g/L”.
